This passage reports Ki results from patent publication US10213433B2 (AbbVie Inc., priority 2010, dated 2019).

Sequence of Bcl-2 protein (P10415 whole entry): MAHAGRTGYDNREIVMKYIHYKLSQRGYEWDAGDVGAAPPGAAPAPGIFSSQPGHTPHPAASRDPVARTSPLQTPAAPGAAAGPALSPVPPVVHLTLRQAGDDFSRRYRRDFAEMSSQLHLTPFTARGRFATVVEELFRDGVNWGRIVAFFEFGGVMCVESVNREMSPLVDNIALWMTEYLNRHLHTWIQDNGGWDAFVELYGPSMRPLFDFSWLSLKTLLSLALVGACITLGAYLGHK

This assay addresses Bcl-2 protein (Homo sapiens (Human), UniProt P10415). Kind of assay: Bcl-2 binding TR-FRET (Time-Resolved Fluorescence-Resonance-Energy-Transfer) assay. Particulars: inhibition constant for binding to Bcl-2 protein. The source says:
The smaller the Ki value, the greater is the binding affinity.
For orientation: TR-FRET usually uses a lanthanide donor and a delayed reading to cut background.
In general, Ki refers to the equilibrium dissociation constant of an inhibitor or competing ligand from its target. A low value points to tighter binding. Compound `CC1(C)CCC(CN2CCN(c3ccc(C(=O)NS(=O)(=O)c4ccc(NCC5CCOC5)c([N+](=O)[O-])c4)c(Oc4cnc5[nH]ccc5c4)c3)CC2)=C(c2ccc(Cl)cc2)C1` (stereo not shown) [Compound 114, 4-(4-{[2-(4-chlorophenyl)-4,4-dimethylcyclohex-1-en-1-yl]methyl}piperazin-1-yl)-N-({3-nitro-4-[(tetrahydrofuran-3-ylmethyl)amino]phenyl}sulfonyl)-2-(1H-pyrrolo[2,3-b]pyridin-5-yloxy)benzamide] showed a Ki below 10 pM.
Then `CC1(C)CCC(CN2CCN(c3ccc(C(=O)NS(=O)(=O)c4ccc(NC5CN(C6CCOCC6)C5)c([N+](=O)[O-])c4)c(Oc4cnc5[nH]ccc5c4)c3)CC2)=C(c2ccc(Cl)cc2)C1` [Compound 116, 4-(4-{[2-(4-chlorophenyl)-4,4-dimethylcyclohex-1-en-1-yl]methyl}piperazin-1-yl)-N-({3-nitro-4-[(1-tetrahydro-2H-pyran-4-ylazetidin-3-yl)amino]phenyl}sulfonyl)-2-(1H-pyrrolo[2,3-b]pyridin-5-yloxy)benzamide], with below 10 pM.
The same measure for `CC1(C)CCC(CN2CCN(c3ccc(C(=O)NS(=O)(=O)c4ccc(NC5CN(C6CCOC6)C5)c([N+](=O)[O-])c4)c(Oc4cnc5[nH]ccc5c4)c3)CC2)=C(c2ccc(Cl)cc2)C1` (stereo not shown) [Compound 117, 4-(4-{[2-(4-chlorophenyl)-4,4-dimethylcyclohex-1-en-1-yl]methyl}piperazin-1-yl)-N-({3-nitro-4-[(1-tetrahydrofuran-3-ylazetidin-3-yl)amino]phenyl}sulfonyl)-2-(1H-pyrrolo[2,3-b]pyridin-5-yloxy)benzamide]: below 10 pM; for `CC1(C)CCC(CN2CCN(c3ccc(C(=O)NS(=O)(=O)c4ccc(NC[C@H]5CCN(C6CCOCC6)C5)c([N+](=O)[O-])c4)c(Oc4cnc5[nH]ccc5c4)c3)CC2)=C(c2ccc(Cl)cc2)C1` [Compound 118, 4-(4-{[2-(4-chlorophenyl)-4,4-dimethylcyclohex-1-en-1-yl]methyl}piperazin-1-yl)-N-{[3-nitro-4-({[(3R)-1-tetrahydro-2H-pyran-4-ylpyrrolidin-3-yl]methyl}amino)phenyl]sulfonyl}-2-(1H-pyrrolo[2,3-b]pyridin-5-yloxy)benzamide]: below 10 pM.
As to `CC1(C)CCC(c2ccc(Cl)cc2)=C(CN2CCN(c3ccc(C(=O)NS(=O)(=O)c4ccc(OCC5(F)CCOCC5)c([N+](=O)[O-])c4)c(Oc4cnc5[nH]ccc5c4)c3)CC2)C1` [Compound 119, 4-(4-{[2-(4-chlorophenyl)-5,5-dimethylcyclohex-1-en-1-yl]methyl}piperazin-1-yl)-N-({4-[(4-fluorotetrahydro-2H-pyran-4-yl)methoxy]-3-nitrophenyl}sulfonyl)-2-(1H-pyrrolo[2,3-b]pyridin-5-yloxy)benzamide], the Ki was below 10 pM.
The compound `CC1(C)CCC(CN2CCN(c3ccc(C(=O)NS(=O)(=O)c4ccc(NC[C@H]5CC[C@H](O)CC5)c([N+](=O)[O-])c4)c(Oc4cnc5[nH]ccc5c4)c3)CC2)=C(c2ccc(Cl)cc2)C1` [Compound 120] came in with a Ki below 10 pM.
Compound `CC1(C)CCC(CN2CCN(c3ccc(C(=O)NS(=O)(=O)c4ccc(N[C@H]5CC[C@@H](NC6CC6)CC5)c([N+](=O)[O-])c4)c(Oc4cnc5[nH]ccc5c4)c3)CC2)=C(c2ccc(Cl)cc2)C1` [Compound 122, cis-4-(4-{[2-(4-chlorophenyl)-4,4-dimethylcyclohex-1-en-1-yl]methyl}piperazin-1-yl)-N-[(4-{[4-(cyclopropylamino)cyclohexyll]amino}-3-nitrophenyl)sulfonyll]-2-(1H-pyrrolo[2,3-b]pyridin-5-yloxy)benzamide] came in with a Ki below 10 pM.
For the compound `CC1(C)CCC(CN2CCN(c3ccc(C(=O)NS(=O)(=O)c4cnc(O[C@H]5CC[C@H](N6CCOCC6)CC5)c(Br)c4)c(Oc4cnc5[nH]ccc5c4)c3)CC2)=C(c2ccc(Cl)cc2)C1` [Compound 124], the Ki is below 10 pM.
The same measure for `CC1(C)CCC(CN2CCN(c3ccc(C(=O)NS(=O)(=O)c4ccc(OCC5(F)CCN(C(=O)OC(C)(C)C)CC5)c([N+](=O)[O-])c4)c(Oc4cnc5[nH]ccc5c4)c3)CC2)=C(c2ccc(Cl)cc2)C1` [Compound 126, tert-butyl 4-{[4-({[4-(4-{[2-(4-chlorophenyl)-4,4-dimethylcyclohex-1-en-1-yl]methyl}piperazin-1-yl)-2-(1H-pyrrolo[2,3-b]pyridin-5-yloxy)benzoyl]amino}sulfonyl)-2-nitrophenoxy]methyl}-4-fluoropiperidine-1-carboxylate]: below 10 pM; for `CC1(C)CCC(CN2CCN(c3ccc(C(=O)NS(=O)(=O)c4ccc(OCC5(F)CCNCC5)c([N+](=O)[O-])c4)c(Oc4cnc5[nH]ccc5c4)c3)CC2)=C(c2ccc(Cl)cc2)C1` [Compound 127, 4-(4-{[2-(4-chlorophenyl)-4,4-dimethylcyclohex-1-en-1-yl]methyl}piperazin-1-yl)-N-({4-[(4-fluoropiperidin-4-yl)methoxy]-3-nitrophenyl}sulfonyl)-2-(1H-pyrrolo[2,3-b]pyridin-5-yloxy)benzamide]: below 10 pM.
For `CC1(C)CCC(CN2CCN(c3ccc(C(=O)NS(=O)(=O)c4ccc(N[C@@H]5CCN(C6CCOCC6)C5)c([N+](=O)[O-])c4)c(Oc4cnc5[nH]ccc5c4)c3)CC2)=C(c2ccc(Cl)cc2)C1` [Compound 130, 4-(4-{[2-(4-chlorophenyl)-4,4-dimethylcyclohex-1-en-1-yl]methyl}piperazin-1-yl)-N-[(3-nitro-4-{[(3R)-1-tetrahydro-2H-pyran-4-ylpyrrolidin-3-yl]amino}phenyl)sulfonyl]-2-(1H-pyrrolo[2,3-b]pyridin-5-yloxy)benzamide], the Ki is below 10 pM.
Compound `CC1(C)CCC(CN2CCN(c3ccc(C(=O)NS(=O)(=O)c4ccc(N[C@@H]5CCN(C6CCOC(C)(C)C6)C5)c([N+](=O)[O-])c4)c(Oc4cnc5[nH]ccc5c4)c3)CC2)=C(c2ccc(Cl)cc2)C1` (stereo partly drawn) [Compound 131, 4-(4-{[2-(4-chlorophenyl)-4,4-dimethylcyclohex-1-en-1-yl]methyl}piperazin-1-yl)-N-[(4-{[(3R)-1-(2,2-dimethyltetrahydro-2H-pyran-4-yl)pyrrolidin-3-yl]amino}-3-nitrophenyl)sulfonyl]-2-(1H-pyrrolo[2,3-b]pyridin-5-yloxy)benzamide] yielded a Ki below 10 pM.
`CC1(C)CCC(CN2CCN(c3ccc(C(=O)NS(=O)(=O)c4ccc(N[C@H]5CCN(C6CCOCC6)C5)c([N+](=O)[O-])c4)c(Oc4cnc5[nH]ccc5c4)c3)CC2)=C(c2ccc(Cl)cc2)C1` [Compound 132, 4-(4-{[2-(4-chlorophenyl)-4,4-dimethylcyclohex-1-en-1-yl]methyl}piperazin-1-yl)-N-[(3-nitro-4-{[(3S)-1-tetrahydro-2H-pyran-4-ylpyrrolidin-3-yl]amino}phenyl)sulfonyl]-2-(1H-pyrrolo[2,3-b]pyridin-5-yloxy)benzamide] displayed a Ki below 10 pM.
The compound `CC1(C)CCC(CN2CCN(c3ccc(C(=O)NS(=O)(=O)c4ccc(N[C@H]5CCN(C6CCOC(C)(C)C6)C5)c([N+](=O)[O-])c4)c(Oc4cnc5[nH]ccc5c4)c3)CC2)=C(c2ccc(Cl)cc2)C1` (stereo partly drawn) [Compound 133, 4-(4-{[2-(4-chlorophenyl)-4,4-dimethylcyclohex-1-en-1-yl]methyl}piperazin-1-yl)-N-[(4-{[(3S)-1-(2,2-dimethyltetrahydro-2H-pyran-4-yl)pyrrolidin-3-yl]amino}-3-nitrophenyl)sulfonyl]-2-(1H-pyrrolo[2,3-b]pyridin-5-yloxy)benzamide] yielded a Ki below 10 pM.
With `CN1CCOC(CNc2ccc(S(=O)(=O)NC(=O)c3ccc(N4CCN(CC5=C(c6ccc(Cl)cc6)CC(C)(C)CC5)CC4)cc3Oc3cnc4[nH]ccc4c3)cc2[N+](=O)[O-])C1` (stereo not shown) [Compound 134, 4-(4-{[2-(4-chlorophenyl)-4,4-dimethylcyclohex-1-en-1-yl]methyl}piperazin-1-yl)-N-[(4-{[(4-methylmorpholin-2-yl)methyl]amino}-3-nitrophenyl)sulfonyl]-2-(1H-pyrrolo[2,3-b]pyridin-5-yloxy)benzamide], the Ki was below 10 pM.
Then `COCCN1CCOC(CNc2ccc(S(=O)(=O)NC(=O)c3ccc(N4CCN(CC5=C(c6ccc(Cl)cc6)CC(C)(C)CC5)CC4)cc3Oc3cnc4[nH]ccc4c3)cc2[N+](=O)[O-])C1` (stereo not shown) [Compound 135, 4-(4-{[2-(4-chlorophenyl)-4,4-dimethylcyclohex-1-en-1-yl]methyl}piperazin-1-yl)-N-{[4-({[4-(2-methoxyethyl)morpholin-2-yl]methyl}amino)-3-nitrophenyl]sulfonyl}-2-(1H-pyrrolo[2,3-b]pyridin-5-yloxy)benzamide], with below 10 pM; and `CC(=O)N1CCOC(CNc2ccc(S(=O)(=O)NC(=O)c3ccc(N4CCN(CC5=C(c6ccc(Cl)cc6)CC(C)(C)CC5)CC4)cc3Oc3cnc4[nH]ccc4c3)cc2[N+](=O)[O-])C1` (stereo not shown) [Compound 136, N-[(4-{[(4-acetylmorpholin-2-yl)methyl]amino}-3-nitrophenyl)sulfonyl]-4-(4-{[2-(4-chlorophenyl)-4,4-dimethylcyclohex-1-en-1-yl]methyl}piperazin-1-yl)-2-(1H-pyrrolo[2,3-b]pyridin-5-yloxy)benzamide], with below 10 pM; and `CC1(C)CCC(CN2CCN(c3ccc(C(=O)NS(=O)(=O)c4ccc(NCC5(F)CCOCC5)c([N+](=O)[O-])c4)c(Oc4cnc5[nH]ccc5c4)c3)CC2)=C(c2ccc(Cl)cc2)C1` [Compound 138, 4-(4-{[2-(4-chlorophenyl)-4,4-dimethylcyclohex-1-en-1-yl]methyl}piperazin-1-yl)-N-[(4-{[(4-fluorotetrahydro-2H-pyran-4-yl)methyl]amino}-3-nitrophenyl)sulfonyl]-2-(1H-pyrrolo[2,3-b]pyridin-5-yloxy)benzamide], with below 10 pM.
The compound `CC1(C)CCC(CN2CCN(c3ccc(C(=O)NS(=O)(=O)c4ccc(NC5CCN(C6COC6)CC5)c([N+](=O)[O-])c4)c(Oc4cnc5[nH]ccc5c4)c3)CC2)=C(c2ccc(Cl)cc2)C1` [Compound 139, 4-(4-{[2-(4-chlorophenyl)-4,4-dimethylcyclohex-1-en-1-yl]methyl}piperazin-1-yl)-N-({3-nitro-4-[(1-oxetan-3-ylpiperidin-4-yl)amino]phenyl}sulfonyl)-2-(1H-pyrrolo[2,3-b]pyridin-5-yloxy)benzamide] displayed a Ki below 10 pM.
